Results: patent US7691969B2, “Isolated GRP94 ligand binding domain polypeptide and nucleic acid encoding same, crystalline form of same, and screening methods employing same” (Duke University, priority 2001, dated 2010)

Tests used:
GRP94 [1] = biological target: T1, GRP94 (Sus scrofa, UniProt Q29092); experiment: Identification of the bis-ANS binding site (photo-crosslinking, Edman sequencing); parameters: species or system porcine
T1 construct: GRP94 was purified from porcine pancreas rough microsomes; from tissue; host or cells: porcine pancreas rough microsomes (lumenal contents)
Protocol: Identification of the bis-ANS binding site. […] Following photocrosslinking, GRP94-bis-ANS complexes were digested with trypsin for one hour at 37° C.
As described in Materials and Methods, GRP94 was combined with an excess of bis-ANS and photo-crosslinked on ice for 15 minutes. GRP94 was subsequently digested with trypsin, the fluorescent peptides purified by HPLC, and the sequence of the labeled peptides determined by Edman sequencing.

HSP90 [2] = biological target: HSP90 (Homo sapiens, UniProt P07900); experiment: Conformational analysis by proteolysis (trypsin, SDS-PAGE); type: biochemical
GRP94 [3] = biological target: T1, GRP94; experiment: as above; type: biochemical, porcine; details: 5 μM GRP94, 50 μM bis-ANS, 1 h 37° C.; 0.1% trypsin 30 min
Protocol: Conformational Analysis by Proteolysis. The conformational state of GRP94 was assessed by tryptic digestion of the protein and subsequent SDS-PAGE analysis. […] Samples were then combined with 0.1% trypsin and digested for 30 minutes at 37° C. An equal volume of SDS-PAGE sample buffer was added and the samples were snap frozen in liquid nitrogen. Immediately prior to gel analysis, samples were thawed and boiled for 5 minutes. […] Gels were fixed and stained with Coomassie Blue. For time course experiments, excess free bis-ANS was removed immediately prior to trypsinization by gel filtration on 0.5 ml G-25 SEPHADEX® spin columns.

GRP94 [4] = biological target: T1, GRP94; experiment: Native blue electrophoresis (BN-PAGE) of oligomeric state; type: biochemical, porcine; details: ten-fold molar excess of bis-ANS
Protocol: Native Blue Electrophoresis. The oligomeric state of GRP94 was assayed by blue native polyacrylamide gel electrophoresis (BN-PAGE) as described by Schagger et al. (1994) Anal Biochem 217:220-230. GRP94 was either heat shocked or exposed to a 10-fold molar excess of bis-ANS for the indicated times. Samples were then dissolved in 15% glycerol and loaded onto 5-18% gradient gels with 0.02% Coomassie Brilliant Blue in the cathode buffer. Gels were run at 4° C., stained with Coomassie Blue, de-stained and dried.

GRP94 [5] = biological target: T1, GRP94; experiment: Citrate synthase thermal aggregation assay (chaperone activity); type: biochemical, porcine; details: 1 μM GRP94 preincubated 2 h with 10 μM bis-ANS; 0.15 μM citrate synthase, 43° C.
Protocol: Citrate Synthase Aggregation Assays. The effects of GRP94 on the thermal aggregation of citrate synthase were assayed by the methods described by Buchner et al. (1998) Methods Enzymol 290:323-338. Samples containing no protein, or GRP94 (1 μM), were incubated in 40 mM HEPES pH 7.5 for two hours at 37° C. with either 0.2% DMF or 10 µM bis-ANS. The samples were then warmed to 43° C. for five minutes and placed in a spectrofluorometer thermostatted at 43° C. Citrate synthase was then added to 0.15 μM final concentration and the thermal aggregation of the enzyme followed by light scattering. Excitation and emission wavelengths were both 500 nm with 2 nm slit width. The time course of citrate synthase aggregation was followed for 1000 seconds.
To determine if the bis-ANS-dependent conformational changes in GRP94 were of functional significance, the molecular chaperone activities of native, heat shocked and bis-ANS treated GRP94 were evaluated in a thermal aggregation assay, as described by Jakob et al. (1995) J Biol Chem 270:7288-7294 and Buchner et al. (1998) Methods Enzymol 290:323-338. […] Following experimental treatment of the GRP94, reactions were equilibrated at 43° C., citrate synthase then added and aggregation, as represented by light scattering, was measured.

GRP94 [6] = biological target: T1, GRP94; experiment: Fluorophore binding to native and heat shocked GRP94 (fluorescence emission); parameters: species or system porcine
Excerpt: Fluorophore Binding Reactions.
Fluorescence Measurements. […] All spectra were background corrected.
To characterize the structural basis for the heat shock dependent activation of GRP94 activity, the interaction of polarity-sensitive fluorophores with native and heat shocked GRP94 was examined. The three probes tested, Prodan (6-propionyl-2-(dimethylamino)naphthalene), 8-ANS (1,8-anilinonaphthalenesulfonate) and bis-ANS (bis(1,8-anilino-naphthalenesulfonate) are structurally related probes that bind to hydrophobic sites on proteins and undergo substantial fluorescence spectrum changes upon introduction into nonpolar environments, as discussed by Rosen & Weber (1969) Biochemistry 8:3915-3920; Weber & Farris (1979) Biochemistry 18:3075-3078; Takashi et al. (1977) Proc Natl Acad Sci USA 74:2334-2338; Shi et al. (1994) Biochemistry 33:7536-7546. The following experimental protocol was utilized. GRP94 was warmed to 37° C. and either maintained at 37° C. or heat shocked for 15 minutes at 50° C., followed by incubation at 37° C. Subsequently, probe stocks were added to the GRP94 stocks and emission spectra recorded after 30 min at 37° C.
Under the experimental conditions used in this series of experiments, bis-ANS binding to GRP94 was near maximal at a 20-fold molar excess of GRP94 monomer over bis-ANS, with half maximal binding observed at 110 nM GRP94 (FIG. 2B).

GRP94 [7] = biological target: T1, GRP94; experiment: Far-UV circular dichroism; type: biochemical, porcine; details: 1 μM GRP94, 10 μM bis-ANS, 2 h
Protocol: Circular Dichroism Measurements. Far-UV CD spectrometry was performed on an AVIV Associates 62DS™ circular dichroism spectrometer (AVIV Associates of Lakewood, N.J.). Samples were analyzed in a 1 mm path length quartz cuvette at 37° C. GRP94 samples (1 μM) were prepared in standard phosphate buffered saline solution as buffer A produced unacceptable dynode voltages in the relevant region of the spectrum. GRP94 was incubated with 10 µM bis-ANS for 2 hours at 37° C. prior to obtaining spectra. Spectra were recorded from 300 to 195 nm. The α-helical content of GRP94 was calculated from the molar ellipticity at 222 nm. See Myers & Jakoby (1975) J Biol Chem 250:3785-3789.

GRP94 [8] = biological target: T1, GRP94; experiment: [3H]-NECA competitive displacement assay; type: binding, porcine
Protocol: Where indicated, binding reactions were performed in either buffer C (10 mM Tris, pH 7.5, 50 mM KCl, 5 mM MgCl2, 2 mM DTT, 0.01% NP-40, 20 mM Na2MoO4) or 50 mM Tris, pH 7.5, 10 mM Mg(OAc)2. […] Vacuum filtration was performed with an Amersham Pharmacia Biotech (Piscataway, N.J.) vacuum filtration manifold.
All binding reactions were performed in triplicate and corrected by subtraction of background values, determined in binding reactions lacking GRP94.

GRP94 [9] = biological target: T1, GRP94; experiment: Tryptophan fluorescence (tertiary conformational state); type: biochemical, porcine; details: 50 μM NECA, 50 μM geldanamycin, 2.5 mM ATP or 2.5 mM ADP; 1 h 37° C.
Protocol: Tryptophan Fluorescence. Tryptophan fluorescence measurements were conducted in a FLUOROMAX™ spectrofluorometer (Spex Industries, Inc. of Edison, N.J.) with the slit widths set to 1 nm for both excitation and emission. […] All spectra were corrected by subtraction of buffer or buffer plus ligand samples. GRP94 (50 μg/ml) was incubated in buffer A supplemented with 10 mM Mg(OAc)2 and the following concentrations of ligands for 1 hour at 37° C. […] Samples were then cooled to room temperature, transferred to a quartz cuvette, and the spectra collected.

HSP90 [10] = biological target: HSP90 (Saccharomyces cerevisiae, UniProt P02829); details: Prodromou et al. (1997); cited from earlier work
BiP = experiment: ATP binding assay ([32P]ATP, nitrocellulose filtration); parameters: species or system porcine; details: 50 μM [32P]ATP, 1 h on ice
Protocol: (§1) ATP Binding Assay. Six μg of GRP94, BiP, and Hsp90 was incubated with 50 μM […] (1000 μCi/μmol) (Amersham Pharmacia Biotech of Piscataway, N.J.) in buffer B on ice for 1 hour. Nitrocellulose filters (BA85) (Schleicher & Schuell of Keene, N.H.) were individually wet in buffer B before use, and bound versus free [^32P]-ATP was separated by vacuum filtration. Filters were washed with 3×2 mL of ice cold buffer B, placed in 5 mL of scintillation fluid, vortexed, and counted.

GRP94 [11] = biological target: T1, GRP94; experiment: as above; parameters: species or system porcine; details: 50 μM [32P]ATP, 1 h on ice
Protocol: as §1

T1 sequence (Q29092 22-804): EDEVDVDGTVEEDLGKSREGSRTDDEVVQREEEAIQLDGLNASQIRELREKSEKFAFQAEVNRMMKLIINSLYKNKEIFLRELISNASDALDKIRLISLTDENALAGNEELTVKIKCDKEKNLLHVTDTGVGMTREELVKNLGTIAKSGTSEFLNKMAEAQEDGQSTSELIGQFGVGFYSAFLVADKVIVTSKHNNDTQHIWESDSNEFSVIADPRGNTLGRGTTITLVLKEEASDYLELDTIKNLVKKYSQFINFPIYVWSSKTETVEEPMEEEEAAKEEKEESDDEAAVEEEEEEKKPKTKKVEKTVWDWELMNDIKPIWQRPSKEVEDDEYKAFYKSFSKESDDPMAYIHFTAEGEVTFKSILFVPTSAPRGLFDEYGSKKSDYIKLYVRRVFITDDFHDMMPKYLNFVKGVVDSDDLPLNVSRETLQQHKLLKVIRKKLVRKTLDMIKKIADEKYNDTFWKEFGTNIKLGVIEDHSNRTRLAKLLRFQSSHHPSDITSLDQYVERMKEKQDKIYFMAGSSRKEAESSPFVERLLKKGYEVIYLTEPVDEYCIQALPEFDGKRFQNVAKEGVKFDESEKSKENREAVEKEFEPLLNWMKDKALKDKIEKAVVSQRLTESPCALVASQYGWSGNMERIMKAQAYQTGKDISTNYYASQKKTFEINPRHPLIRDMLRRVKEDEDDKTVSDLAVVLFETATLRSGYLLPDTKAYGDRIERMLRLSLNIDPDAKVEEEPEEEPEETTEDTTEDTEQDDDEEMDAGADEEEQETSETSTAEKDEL
Sequence of HSP90 (Saccharomyces cerevisiae, UniProt P02829) (P02829 whole entry): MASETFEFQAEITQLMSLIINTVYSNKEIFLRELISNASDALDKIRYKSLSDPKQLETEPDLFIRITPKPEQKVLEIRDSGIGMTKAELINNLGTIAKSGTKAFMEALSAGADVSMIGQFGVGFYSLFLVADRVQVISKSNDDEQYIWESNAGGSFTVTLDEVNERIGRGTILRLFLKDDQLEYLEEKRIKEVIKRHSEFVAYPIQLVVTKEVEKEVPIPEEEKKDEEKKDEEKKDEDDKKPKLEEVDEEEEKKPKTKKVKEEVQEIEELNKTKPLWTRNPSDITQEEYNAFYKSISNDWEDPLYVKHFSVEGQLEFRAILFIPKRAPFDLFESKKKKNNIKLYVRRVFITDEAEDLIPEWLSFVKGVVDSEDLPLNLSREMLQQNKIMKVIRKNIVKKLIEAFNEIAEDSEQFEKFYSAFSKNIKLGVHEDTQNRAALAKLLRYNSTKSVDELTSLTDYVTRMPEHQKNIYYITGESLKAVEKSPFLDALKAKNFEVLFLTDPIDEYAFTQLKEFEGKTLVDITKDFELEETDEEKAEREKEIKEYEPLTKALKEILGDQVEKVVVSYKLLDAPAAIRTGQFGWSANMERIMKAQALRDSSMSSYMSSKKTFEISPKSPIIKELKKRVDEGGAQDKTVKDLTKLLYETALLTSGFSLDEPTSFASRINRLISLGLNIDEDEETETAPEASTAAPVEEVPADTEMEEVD

Kd (GRP94 [6]; fixed 50 nM bis-ANS, increasing GRP94, excitation 393 nm, emission 475 nm, read-out: half maximal binding of bis-ANS to heat shocked GRP94 (GRP94 concentration)) [µM] | molar excess of GRP94 monomer over bis-ANS at near maximal binding (GRP94 [6]; heat shocked GRP94) | secondary structure of GRP94 (CD spectra) (GRP94 [7]) | molar excess required for 50% inhibition of [3H]-NECA binding (GRP94 [8]; 20 nM [3H]-NECA) | nucleoside base specificity: binding to GRP94 by [3H]-NECA displacement (GRP94 [8]; competitors at 50 μM) | relative affinities for GRP94 in presence of Mg2+ (GRP94 [8]; excess Mg2+) | efficacy of competing NECA binding, ATP relative to ADP (GRP94 [8]; no excess Mg2+) | Compound | site of bis-ANS binding to GRP94 (labeled peptide) (GRP94 [1]) | trypsin proteolysis pattern of HSP90 (HSP90 [2]) | trypsin proteolysis pattern of GRP94 (GRP94 [3]) | quaternary structure (oligomerization) of GRP94 (GRP94 [4]) | thermal aggregation of citrate synthase in presence of treated GRP94 (GRP94 [5]) | agonist activity for GRP94 activation (GRP94 [6]) | fluorophore binding to native versus heat shocked GRP94 (fluorescence emission) (GRP94 [6]; 0.5 μM GRP94, 5 μM probe, 37° C.) | effect of excess Mg2+ on binding to GRP94 (GRP94 [8]; 10 mM Mg(OAc)2 versus nominal magnesium) | change of GRP94 tryptophan fluorescence (GRP94 [9]) | Kd (HSP90 [10]) [µM] | ATP binding (BiP) | ATP binding (GRP94 [11])
0.11 | 20 -fold | does not alter GRP94 secondary structure | – | – | – | – | 4,4′-dianilino-1,1-binaphthyl-5,5-disulfonic acid [bis-ANS] | mapped to residues 271-281 of the N-terminal domain of GRP94 | Essentially identical proteolysis patterns were observed following either heat shock or bis-ANS treatment of HSP90 | substantially reduced recovery of the prominent proteolysis products | induces changes in the quaternary structure of GRP94 that mimic those seen upon heat shock | no thermal aggregation of citrate synthase was detectable | both an agonist for GRP94 activation as well as an indicator for the relative state of activation | a level of fluorophore binding similar to that seen with heat shocked GRP94 was observed | – | – | – | – | –
– | – | – | ~1000 -fold molar excess | GRP94 could bind both ATP and deoxyATP | nearly identical relative affinities | eight-fold higher efficacy than ADP | Nc1ncnc2c1ncn2[C@@H]1O[C@H](COP(=O)(O)OP(=O)(O)OP(=O)(O)O)[C@@H](O)[C@H]1O [ATP] | – | – | – | – | – | – | – | markedly stimulated the binding of ATP, ADP and AMP | the tryptophan fluorescence was decreased | 132 | displayed the expected ATP binding activity | no ATP binding was observed to Hsp90 or GRP94
